Measurements as given in article PMC10064984, “Anti-cyclooxygenase, anti-glycation, and anti-skin aging effect of Dendrobium officinale flowers’ aqueous extract and its phytochemical validation in aging” (Frontiers in Immunology, 2023).
Several values for one entry are separate records, joined by “and”; a condition that tells them apart may be missing. Identical values can stand only once. Like-named read-outs stand apart in the source and are kept apart here.

Columns and labels:
Format in all cases: biochemical
[1] = DPPH· scavenging; conditions: mean ± SD, n = 3;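 note: colourimetric DPPH radical scavenging in 96-well plates, absorbance read-out, percent inhibition relative to ethanol control absorbance, IC50 derived graphically from dose-inhibition curves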
[2] = ABTS·+ decolourisation capacity; conditions: mean ± SD, n = 3
Description: Fast colourimetric methods were slightly modified for the in vitro assessment of DPPH· scavenging ([19]), ABTS·+ decolourisation capacity ([20]), and total antioxidant capacity of FRAP ([21]). The stock solutions of derivatisation reagents were diluted as follows before measurement: DPPH was diluted with absolute ethanol until the absorbance was 0.8 ± 0.05 at λ = 517 nm. ABTS working solution was prepared with phosphate buffer (0.2 M, pH 7.4) to display absorbance of 0.8 ± 0.05 at λ = 729 nm, based on a previous study ([22]). The FRAP solution was prepared according to the instructions of the FRAP kit. Absorbances were measured using an automatic microplate reader (Molecular Group Ltd., USA), and all analyses were performed using 96-well plates. All measurements were performed in triplicate, and Trolox was used as a positive control.
For ABTS·+ decolourisation capacity, 100 μl of ABTS working solution was mixed with 200 μl of sample solution, and the absorbance was recorded after 10 min at 729 nm. Phosphate buffer (0.2 M, pH 7.4) was used as a negative control.
DPPH· and ABTS·+ radical scavenging activities of the tested sample were both calculated using the following formula:
% inhibition = (A control − A sample)/A control × 100
Where A control and A sample represent the absorbance of the control and test samples, respectively. The IC50 was calculated graphically from the dose-inhibition curves.

[3] = FRAP total antioxidant capacity;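 note: colourimetric FRAP kit assay read as absorbance in 96-well plates, values as mM FeSO4 via standard curve, EC1 being sample concentration matching 1.0 mmol/L FeSO4, Trolox positive control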
[4] = target: T1, COX-2 (Homo sapiens, UniProt P35354); assay: Anti-COX-2 assay (COX-2 Inhibitor Screening Kit)
T1 construct: purchased Beyotime S0168
T1 sequence (P35354 18-604): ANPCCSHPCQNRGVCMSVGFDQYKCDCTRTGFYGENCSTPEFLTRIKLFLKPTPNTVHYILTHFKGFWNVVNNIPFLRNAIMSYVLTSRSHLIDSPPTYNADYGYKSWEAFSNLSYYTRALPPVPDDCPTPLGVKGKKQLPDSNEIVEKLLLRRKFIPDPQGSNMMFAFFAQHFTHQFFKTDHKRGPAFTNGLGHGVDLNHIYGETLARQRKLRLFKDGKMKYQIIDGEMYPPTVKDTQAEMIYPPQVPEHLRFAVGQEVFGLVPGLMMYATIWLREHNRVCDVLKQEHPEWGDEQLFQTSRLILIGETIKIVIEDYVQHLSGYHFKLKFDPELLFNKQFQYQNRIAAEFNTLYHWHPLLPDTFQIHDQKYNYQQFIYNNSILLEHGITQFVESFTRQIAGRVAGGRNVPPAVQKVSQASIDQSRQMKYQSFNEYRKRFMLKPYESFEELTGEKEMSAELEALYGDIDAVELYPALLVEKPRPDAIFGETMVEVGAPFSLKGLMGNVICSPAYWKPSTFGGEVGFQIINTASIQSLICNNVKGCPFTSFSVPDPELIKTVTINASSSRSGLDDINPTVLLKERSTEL

[5] = Fluorescent AGEs formation in a BSA-fructose/glucose system; conditions: for inhibition of fluorescent AGEs formation (BSA-抗糖化), single replicate: individual replicate; for inhibition of fluorescent AGEs formation (BSA-抗糖化), 平均 (mean): mean of 3 replicates; for IC50: mean ± SD, n = 3, read-out: BSA-glycation IC50
Description: Glycated protein was prepared in vitro by incubating BSA in the presence of D-glucose (GLC) and D-fructose (FRC). The DOF extract and specific standards were dissolved in DMSO:water (1:4). […] The assay was performed in triplicate, and AG was used as a positive control. The percentage inhibition of fluorescent AGE formation was calculated using the following equation: […] Where IF sample is fluorescence intensity in the presence of samples and BSA, IF sample control is fluorescence intensity in the presence of samples without BSA, IF control is fluorescence intensity without samples, and IF blank control is fluorescence intensity without samples and BSA.

[6] = lower part of sheet (compound series)

O=c1c(O[C@@H]2O[C@H](CO)[C@@H](O)[C@H](O)[C@H]2O)c(-c2ccc(O)cc2)oc2cc(O)cc(O)c12 [compound 31, Astragalin]
IC50 [1]: > 5000 µM | IC50 [2]: 34.31 ± 0.1 µM | FRAP EC1 [3, 6]: >5000 µM | COX-2 inhibition (in words) [4]: no inhibitory effects | COX-2 inhibition ([4]; 3.125 μM, single replicates, listed as T13, 3.125 µM): 9.26% and 13.01% and -4.90% | COX-2 inhibition ([4]; 6.25 μM, single replicates, listed as T13, 6.25 µM): 7.55% and 7.65% and -2.11% | COX-2 inhibition ([4]; 12.5 μM, single replicates, listed as T13, 12.5 µM): 5.53% and -11.45% and -30.89% | COX-2 inhibition ([4]; 25 μM, single replicates, listed as T13, 25 µM): -6.59% and -8.12% and -23.58% | COX-2 inhibition ([4]; 50 μM, single replicates, listed as T13, 50 µM): -22.46% and -22.25% and -29.37% | COX-2 inhibition ([4]; 100 μM, single replicates, listed as T13, 100 µM): -33.58% and -17.93% and -41.32% | COX-2 inhibition ([4]; 200 μM, single replicates, listed as T13, 200 µM): -24.47% and -35.20% and -49.99% | inhibition of fluorescent AGEs formation (BSA-抗糖化), single replicate ([5]; 15.625 µM, listed as T13, 15.625 µM): 3.97% and 2.43% and 3.28% | inhibition of fluorescent AGEs formation (BSA-抗糖化), 平均 (mean) ([5]; 15.625 µM): 3.23% | inhibition of fluorescent AGEs formation (BSA-抗糖化), single replicate ([5]; 31.25 µM, listed as T13, 31.25 µM): 6.47% and 9.23% and 6.65% | inhibition of fluorescent AGEs formation (BSA-抗糖化), 平均 (mean) ([5]; 31.25 µM): 7.45% | inhibition of fluorescent AGEs formation (BSA-抗糖化), single replicate ([5]; 62.5 µM, listed as T13, 62.5 µM): 16.61% and 18.46% and 18.15% | inhibition of fluorescent AGEs formation (BSA-抗糖化), 平均 (mean) ([5]; 62.5 µM): 17.74% | inhibition of fluorescent AGEs formation (BSA-抗糖化), single replicate ([5]; 125 µM, listed as T13, 125 µM): 25.98% and 33.83% and 29.94% | inhibition of fluorescent AGEs formation (BSA-抗糖化), 平均 (mean) ([5]; 125 µM): 29.92% | inhibition of fluorescent AGEs formation (BSA-抗糖化), single replicate ([5]; 250 µM, listed as T13, 250 µM): 39.66% and 53.40% and 48.31% | inhibition of fluorescent AGEs formation (BSA-抗糖化), 平均 (mean) ([5]; 250 µM): 47.12% | inhibition of fluorescent AGEs formation (BSA-抗糖化), single replicate ([5]; 500 µM, listed as T13, 500 µM): 65.95% and 67.35% and 67.23% | inhibition of fluorescent AGEs formation (BSA-抗糖化), 平均 (mean) ([5]; 500 µM): 66.84% | inhibition of fluorescent AGEs formation (BSA-抗糖化), single replicate ([5]; 1000 µM, listed as T13, 1000 µM): 79.55% and 78.97% and 78.39% | inhibition of fluorescent AGEs formation (BSA-抗糖化), 平均 (mean) ([5]; 1000 µM): 78.97% | inhibition of fluorescent AGEs formation (BSA-抗糖化), single replicate ([5]; 2000 µM, listed as T13, 2000 µM): 89.49% and 89.99% and 89.93% | inhibition of fluorescent AGEs formation (BSA-抗糖化), 平均 (mean) ([5]; 2000 µM): 89.80% | inhibition of fluorescent AGEs formation (BSA-抗糖化), single replicate ([5]; 4000 µM (series head 'T9 4000µM', 2-fold dilutions), listed as T13): 94.89% and 93.91% and 94.80% | inhibition of fluorescent AGEs formation (BSA-抗糖化), 平均 (mean) ([5]; 4000 µM): 94.53% | IC50 [5]: 276 ± 33 µM

COc1cc(-c2oc3cc(O)cc(O)c3c(=O)c2OC2OC(CO)C(O)C(O)C2O)ccc1O (stereo not drawn) [compound 32, Isorhamnetin-3-O-glucoside]
IC50 [1]: 2370 µM | IC50 [2]: 44.7 ± 1.52 µM | FRAP EC1 [3, 6]: 2757.3 ± 103.8 µM | FRAP EC1 ([3]; mean ± SD, n = 3): 2,757.3 ± 103.8 μM | inhibition at 31.25 µM ([4]; 31.25 μM, single replicates): 5.99% | COX-2 inhibition ([4]; 31.25 μM, single replicates, listed as T14, 31.25 µM): 4.35% | COX-2 inhibition ([4]; 62.5 μM, single replicates, listed as T14, 62.5 µM): -8.14% and 8.77% and -5.55% | COX-2 inhibition ([4]; 125 μM, single replicates, listed as T14, 125 µM): 16.41% and 9.67% and 1.80% | COX-2 inhibition ([4]; 250 μM, single replicates, listed as T14, 250 µM): 18.89% and 38.58% and 20.11% | inhibition at 500 µM ([4]; 500 μM, single replicates): 53.6% | COX-2 inhibition ([4]; 500 μM, single replicates, listed as T14, 500 µM): 61.95% and 42.08% | inhibition at 1000 µM ([4]; 1000 μM, single replicates): 77.5% | COX-2 inhibition ([4]; 1000 μM, single replicates, listed as T14, 1000 µM): 79.82% and 70.09% | inhibition at 2000 µM ([4]; 2000 μM (2mM), single replicates): 76.1% | COX-2 inhibition ([4]; 2000 μM (2mM), single replicates, listed as T14): 78.14% and 68.80% | IC50 ([4]; mean ± SD, n = 3, nd, not detected, read-out: COX-2 IC50): 535 ± 150 µM | IC50 ([4]; supplement sheet COX, read-out: COX-2 IC50, single replicate): 515 µM and 396 µM and 694 µM | inhibition of fluorescent AGEs formation (BSA-抗糖化), single replicate ([5]; 15.625 µM, listed as T14, 15.625 µM): 6.47% and 9.81% and 6.23% | inhibition of fluorescent AGEs formation (BSA-抗糖化), 平均 (mean) ([5]; 15.625 µM): 7.50% | inhibition of fluorescent AGEs formation (BSA-抗糖化), single replicate ([5]; 31.25 µM, listed as T14, 31.25 µM): 13.37% and 12.51% and 13.56% | inhibition of fluorescent AGEs formation (BSA-抗糖化), 平均 (mean) ([5]; 31.25 µM): 13.15% | inhibition of fluorescent AGEs formation (BSA-抗糖化), single replicate ([5]; 62.5 µM, listed as T14, 62.5 µM): 22.22% and 24.18% and 24.11% | inhibition of fluorescent AGEs formation (BSA-抗糖化), 平均 (mean) ([5]; 62.5 µM): 23.51% | inhibition of fluorescent AGEs formation (BSA-抗糖化), single replicate ([5]; 125 µM, listed as T14, 125 µM): 35.72% and 35.84% and 36.17% | inhibition of fluorescent AGEs formation (BSA-抗糖化), 平均 (mean) ([5]; 125 µM): 35.91% | inhibition of fluorescent AGEs formation (BSA-抗糖化), single replicate ([5]; 250 µM, listed as T14, 250 µM): 54.28% and 53.83% and 54.39% | inhibition of fluorescent AGEs formation (BSA-抗糖化), 平均 (mean) ([5]; 250 µM): 54.17% | inhibition of fluorescent AGEs formation (BSA-抗糖化), single replicate ([5]; 500 µM, listed as T14, 500 µM): 70.40% and 70.98% and 71.44% | inhibition of fluorescent AGEs formation (BSA-抗糖化), 平均 (mean) ([5]; 500 µM): 70.94% | inhibition of fluorescent AGEs formation (BSA-抗糖化), single replicate ([5]; 1000 µM, listed as T14, 1000 µM): 83.59% and 83.42% and 83.56% | inhibition of fluorescent AGEs formation (BSA-抗糖化), 平均 (mean) ([5]; 1000 µM): 83.53% | inhibition of fluorescent AGEs formation (BSA-抗糖化), single replicate ([5]; 2000 µM, listed as T14, 2000 µM): 91.04% and 91.39% and 91.09% | inhibition of fluorescent AGEs formation (BSA-抗糖化), 平均 (mean) ([5]; 2000 µM): 91.17% | inhibition of fluorescent AGEs formation (BSA-抗糖化), single replicate ([5]; 4000 µM (series head 'T9 4000µM', 2-fold dilutions), listed as T14): 95.57% and 95.55% and 95.41% | inhibition of fluorescent AGEs formation (BSA-抗糖化), 平均 (mean) ([5]; 4000 µM): 95.51% | IC50 [5]: 209 ± 3.1 µM
